Results as given in ChEMBL document CHEMBL1138816, “Design and synthesis of novel N-acetylgalactosamine-terminated glycolipids for targeting of lipoproteins to the hepatic asialoglycoprotein receptor” (J Med Chem, 2004).

Tests used:
[1] = Binding affinity for mouse asialoglycoprotein receptor using [125I]-glycolipid3
[2] = tested on: Mus musculus; assay: Percentage liver uptake of [125I]LDL upon intravenous injection to C57BL/6J mice; format: functional
[3] = tested on: Mus musculus; assay: Percentage liver uptake of [3H]HDL upon intravenous injection to C57BL/6J mice
[4] = species on record: Mus musculus; assay: Lipoprotein lowering effect in mice at 3-6 hrs was determined; format: functional
[5] = Uptake by the liver in mice at 60 min after injection; format: ADME, tissue-based; details: mouse, in vivo, 1 h
[6] = Half-life in C57BL/6J mice upon intravenous administration of 3.33 mg/kg; format: ADME, organism-based; parameters: dose 3.33 mg/kg, route intravenous; details: mouse, in vivo

Uptake [5]: 44% | half-life [6]: ~30 min
SMILES: CCCCCCCC/C=C\CCCCCCCC(=O)N[C@H]1CC[C@@]2(C)C(CC[C@H]3[C@@H]4CC[C@H](C(C)CCC(=O)N[C@@H](Cc5ccc(O)cc5)C(=O)NCC(=O)NC(COCCC(=O)NCCOCCOCCOC5OC(CO)C(O)C(O)C5NC(C)=O)(COCCC(=O)NCCOCCOCCOC5OC(CO)C(O)C(O)C5NC(C)=O)COCCC(=O)NCCOCCOCCOC5OC(CO)C(O)C(O)C5NC(C)=O)[C@@]4(C)CC[C@@H]32)C1 (stereo partly specified)
Ki [1]: 2 nM | Activity [2]: 70% | Activity [3]: 78% | Peak effect [4]: 20%
